# According to US8383619B2, “Pharmaceutical compounds” (Astex Therapeutics Limited, priority 2008, dated 2013):
# Experiments:
# Experiment in all cases: Anti-proliferative assay (Oncodesign)
# Type in all cases: cell-based
# Evsa-T = details: Homo sapiens; Evsa-T (BREAST); read-out: IC50 (Concentration of test compound)
# Method: (§1) The anti-proliferative activities of the parent compounds of the pro-drugs of the invention may be determined by measuring the ability of the compounds to inhibition of cell growth in a number of cell lines such as the human colon cancer cell line HCT116. Inhibition of cell growth is measured using the Alamar Blue assay (Nociari, M. M, Shalev, A., Benias, P., Russo, C. Journal of Immunological Methods 1998, 213, 157-167). The method is based on the ability of viable cells to reduce resazurin to its fluorescent product resorufin. For each proliferation assay cells are plated onto 96 well plates and allowed to recover for 16 hours prior to the addition of inhibitor compounds for a further 72 hours. At the end of the incubation period 10% (v/v) Alamar Blue is added and incubated for a further 6 hours prior to determination of fluorescent product at […]. In the case of the non-proliferating cell assay cells are maintained at confluence for 96 hour prior to the addition of inhibitor compounds for a further 72 hours. The number of viable cells is determined by Alamar Blue assay as before. Cell lines may be obtained from the ECACC (European Collection of cell Cultures).
# (§2) The parent compound of the pro-drugs of Examples 1 to 25 i.e. (2,4-dihydroxy-5-isopropyl-phenyl)-[5-(4-methyl-piperazin-1-ylmethyl)-1,3-dihydro-isoindol-2-yl]-methanone, in the form of its L-lactate salt, was tested in anti-proliferative assays against one hundred cell lines by Oncodesign (Dijon, France). The IC50 values against each cell line are set out in the table below and the figures in the table refer to nanomolar concentrations. The compounds were tested up to a concentration of 10,000 nanomolar.
# Calu-6 = details: Homo sapiens; Calu-6 (LUNG); read-out: IC50 (Concentration of test compound)
# Method: as §1, §2
# LoVo = details: Homo sapiens; LoVo (COLON); read-out: IC50 (Concentration of test compound)
# Method: as §1, §2
# BB30-HNSCC = BB30-HNSCC (HEAD AND NECK); read-out: IC50 (Concentration of test compound)
# Method: as §1, §2
# MCF-7 = details: Homo sapiens, MCF7; MCF-7 (BREAST); read-out: IC50 (Concentration of test compound)
# Method: as §1, §2
# Calu-1 = details: Homo sapiens; Calu-1 (LUNG); read-out: IC50 (Concentration of test compound)
# Method: as §1, §2
# T24 = details: Homo sapiens, T-24; T24 (URINARY BLADDER); read-out: IC50 (Concentration of test compound)
# Method: as §1, §2
# OCI-AML2 = details: Homo sapiens; OCI-AML2 (BLOOD); read-out: IC50 (Concentration of test compound)
# Method: as §1, §2
# SW-872 = details: Homo sapiens, SW872; SW-872 (CONNECTIVE TISSUE); read-out: IC50 (Concentration of test compound)
# Method: as §1, §2
# DU 145 = details: Homo sapiens; DU 145 (PROSTATE); read-out: IC50 (Concentration of test compound)
# Method: as §1, §2
# CGL-9 = CGL-9 (BRAIN); read-out: IC50 (Concentration of test compound)
# Method: as §1, §2
# NAMALWA = NAMALWA (BLOOD); read-out: IC50 (Concentration of test compound)
# Method: as §1, §2
# BB49-HNSCC = BB49-HNSCC (HEAD AND NECK); read-out: IC50 (Concentration of test compound)
# Method: as §1, §2
# K-562 = details: Homo sapiens, K562; K-562 (BLOOD); read-out: IC50 (Concentration of test compound)
# Method: as §1, §2
# MCF-7/ras = details: Homo sapiens, MCF7; MCF-7/ras (BREAST); read-out: IC50 (Concentration of test compound)
# Method: as §1, §2
# NCI-H82 = details: Homo sapiens; NCI-H82 (LUNG); read-out: IC50 (Concentration of test compound)
# Method: as §1, §2
# SK-HEP-1 = details: Homo sapiens, SK-HEP1; SK-HEP-1 (LIVER); read-out: IC50 (Concentration of test compound)
# Method: as §1, §2
# IGROV-1/CDDP = details: Homo sapiens; IGROV-1/CDDP (OVARY); read-out: IC50 (Concentration of test compound)
# Method: as §1, §2
# U-937 = details: Homo sapiens; U-937 (BLOOD); read-out: IC50 (Concentration of test compound)
# Method: as §1, §2
# BB74-MEL = BB74-MEL (SKIN); read-out: IC50 (Concentration of test compound)
# Method: as §1, §2
# LB1319-MEL = LB1319-MEL (SKIN); read-out: IC50 (Concentration of test compound)
# Method: as §1, §2
# NCI-H520 = details: Homo sapiens; NCI-H520 (LUNG); read-out: IC50 (Concentration of test compound)
# Method: as §1, §2
# Ramos = details: Homo sapiens; Ramos (BLOOD); read-out: IC50 (Concentration of test compound)
# Method: as §1, §2
# BB65-RCC = BB65-RCC (KIDNEY); read-out: IC50 (Concentration of test compound)
# Method: as §1, §2
# Hs 294T = details: Homo sapiens; Hs 294T (SKIN); read-out: IC50 (Concentration of test compound)
# Method: as §1, §2
smiles,measurement,setting,value
"CC(C)c1cc(C(=O)N2Cc3ccc(CN4CCN(C)CC4)cc3C2)c(O)cc1O [(2,4-dihydroxy-5-isopropyl-phenyl)-[5-(4-methyl-piperazin-1-ylmethyl)-1,3-dihydro-isoindol-2-yl]-methanone]",IC50,Evsa-T,168 nM
same,IC50,Calu-6,32 nM
same,IC50,LoVo,51 nM
same,IC50,BB30-HNSCC,273 nM
same,IC50,MCF-7,> 10000 nM
same,IC50,Calu-1,270 nM
same,IC50,T24,852 nM
same,IC50,OCI-AML2,> 10000 nM
same,IC50,SW-872,> 10000 nM
same,IC50,DU 145,85 nM
same,IC50,CGL-9,161 nM
same,IC50,NAMALWA,93 nM
same,IC50,BB49-HNSCC,146 nM
same,IC50,K-562,147 nM
same,IC50,MCF-7/ras,166 nM
same,IC50,NCI-H82,> 10000 nM
same,IC50,SK-HEP-1,> 10000 nM
same,IC50,IGROV-1/CDDP,147 nM
same,IC50,U-937,104 nM
same,IC50,BB74-MEL,162 nM
same,IC50,LB1319-MEL,35 nM
same,IC50,NCI-H520,98 nM
same,IC50,Ramos,46 nM
same,IC50,BB65-RCC,1250 nM
same,IC50,Hs 294T,219 nM
